Data reported in the NIST ThermoML archive (doi:10.1021/je400535t).
Values joined by “and” are separate entries in the source; they are usually repeats but may differ in a detail not shown here. Identical values can stand only once. Numbers after ± are expanded uncertainties.

Assay: molar heat capacity at constant pressure
Conditions: 101.33 kPa, Crystal, Small (less than 1 g) adiabatic calorimetry

O=C([O][Sb]([O]C(=O)C12CC3CC(CC(C3)C1)C2)([c]1ccccc1)([c]1ccccc1)[c]1ccccc1)C12CC3CC(CC(C3)C1)C2
Conditions | molar heat capacity at constant pressure
5 K | 2.04 ± 0.1 J/K/mol
6.41 K | 4.28 ± 0.19 J/K/mol
6.94 K | 5 ± 0.22 J/K/mol
7.48 K | 6.19 ± 0.27 J/K/mol
8.31 K | 8.15 ± 0.35 J/K/mol
9.04 K | 10 ± 0.4 J/K/mol
9.66 K | 11.6 ± 0.5 J/K/mol
10 K | 12.5 ± 0.5 J/K/mol
10.2 K | 13.1 ± 0.6 J/K/mol
10.77 K | 14.6 ± 0.6 J/K/mol
11.22 K | 16 ± 0.7 J/K/mol
11.69 K | 17.3 ± 0.7 J/K/mol
12.18 K | 18.9 ± 0.8 J/K/mol
12.78 K | 20.8 ± 0.9 J/K/mol
13.14 K | 22 ± 0.9 J/K/mol
13.61 K | 23.6 ± 1 J/K/mol
14.14 K | 25.5 ± 1.1 J/K/mol
14.53 K | 26.8 ± 1.1 J/K/mol
15 K | 28.4 ± 1.2 J/K/mol
15.03 K | 28.42 ± 0.46 J/K/mol
15.43 K | 29.84 ± 0.48 J/K/mol
15.87 K | 31.16 ± 0.49 J/K/mol
16.49 K | 33.38 ± 0.52 J/K/mol
17.1 K | 35.31 ± 0.55 J/K/mol
17.71 K | 37.46 ± 0.58 J/K/mol
18.32 K | 39.7 ± 0.61 J/K/mol
18.89 K | 41.48 ± 0.63 J/K/mol
19.52 K | 43.6 ± 0.66 J/K/mol
20 K | 45.29 ± 0.68 J/K/mol
20.03 K | 45.33 ± 0.68 J/K/mol
21.3 K | 50 ± 0.74 J/K/mol
21.81 K | 51.4 ± 0.75 J/K/mol
22.55 K | 53.73 ± 0.78 J/K/mol
23.78 K | 58.14 ± 0.83 J/K/mol
24.3 K | 60.3 ± 0.86 J/K/mol
25 K | 62.48 ± 0.88 J/K/mol
25.02 K | 62.63 ± 0.88 J/K/mol
26.25 K | 66.95 ± 0.93 J/K/mol
26.83 K | 69 ± 0.95 J/K/mol
27.53 K | 71.5 ± 0.98 J/K/mol
28.8 K | 76.1 ± 1 J/K/mol
29.43 K | 78.2 ± 1.1 J/K/mol
30 K | 80.54 ± 1 J/K/mol
30.12 K | 81.06 ± 1 J/K/mol
31.46 K | 85.96 ± 1.1 J/K/mol
32.84 K | 90.86 ± 1.2 J/K/mol
33.37 K | 92.7 ± 1.2 J/K/mol
34.23 K | 95.66 ± 1.2 J/K/mol
35 K | 98.3 ± 1.2 J/K/mol
35.64 K | 100.4 ± 1.3 J/K/mol
37.11 K | 105.3 ± 1.3 J/K/mol
38.61 K | 110.2 ± 1.4 J/K/mol
39.32 K | 112.6 ± 1.4 J/K/mol
40 K | 114.6 ± 1.5 J/K/mol
40.13 K | 115 ± 0.8 J/K/mol
41.68 K | 119.9 ± 0.9 J/K/mol
43.2 K | 124.6 ± 0.9 J/K/mol
44.84 K | 129.5 ± 0.9 J/K/mol
45 K | 130 ± 0.9 J/K/mol
46.46 K | 134.4 ± 1 J/K/mol
48.11 K | 139.3 ± 1 J/K/mol
49.81 K | 144.3 ± 1 J/K/mol
50 K | 144.9 ± 1 J/K/mol
51.54 K | 149.4 ± 1.1 J/K/mol
53.3 K | 154.6 ± 1.1 J/K/mol
55.08 K | 159.8 ± 1.2 J/K/mol
56.92 K | 165 ± 1.2 J/K/mol
58.79 K | 170.2 ± 1.2 J/K/mol
60 K | 173.4 ± 1.2 J/K/mol
60.68 K | 175.3 ± 1.3 J/K/mol
62.61 K | 180.4 ± 1.3 J/K/mol
64.56 K | 185.5 ± 1.3 J/K/mol
65.56 K | 188.2 ± 1.4 J/K/mol
66.56 K | 190.7 ± 1.4 J/K/mol
67.71 K | 194 ± 1.4 J/K/mol
68.61 K | 196.1 ± 1.4 J/K/mol
69.83 K | 198.9 ± 1.4 J/K/mol
70 K | 199.7 ± 1.4 J/K/mol
71.36 K | 203.1 ± 1.5 J/K/mol
72.79 K | 206.9 ± 1.5 J/K/mol
74.91 K | 212.3 ± 1.5 J/K/mol
76.18 K | 214.9 ± 1.5 J/K/mol
77.05 K | 217.4 ± 1.6 J/K/mol
79.88 K | 223.6 ± 1.6 J/K/mol
80 K | 223.8 ± 1.6 J/K/mol
82.03 K | 228.1 ± 1.6 J/K/mol
82.81 K | 229.3 ± 1.6 J/K/mol
84.2 K | 232.4 ± 1.7 J/K/mol
84.88 K | 233.7 ± 1.7 J/K/mol
86.94 K | 238 ± 1.7 J/K/mol
87.67 K | 240.1 ± 1.7 J/K/mol
89 K | 242.4 ± 1.7 J/K/mol
90 K | 244.7 ± 1.7 J/K/mol
90.77 K | 246 ± 1.7 J/K/mol
91.06 K | 246.7 ± 1.7 J/K/mol
93.12 K | 251.6 ± 1.7 J/K/mol
93.18 K | 251.3 ± 1.7 J/K/mol
95.1 K | 255.9 ± 1.8 J/K/mol
97.23 K | 260.6 ± 1.8 J/K/mol
99.29 K | 265.2 ± 1.8 J/K/mol
100 K | 266.9 ± 1.8 J/K/mol
101.34 K | 269.7 ± 1.9 J/K/mol
103.39 K | 274.4 ± 1.9 J/K/mol
105.44 K | 279.4 ± 1.9 J/K/mol
107.49 K | 283.8 ± 1.9 J/K/mol
109.54 K | 288 ± 2 J/K/mol
110 K | 289.1 ± 2 J/K/mol
111.58 K | 292.9 ± 2 J/K/mol
113.6 K | 297.5 ± 2 J/K/mol
115.64 K | 301.6 ± 2.1 J/K/mol
117.68 K | 306.6 ± 2.1 J/K/mol
119.72 K | 310.6 ± 2.1 J/K/mol
120 K | 311.3 ± 2.1 J/K/mol
121.6 K | 314.8 ± 2.2 J/K/mol
123.78 K | 319.2 ± 2.2 J/K/mol
125.8 K | 323.9 ± 2.2 J/K/mol
127.83 K | 328.3 ± 2.2 J/K/mol
129.85 K | 332.6 ± 2.3 J/K/mol
130 K | 333.5 ± 2.3 J/K/mol
131.86 K | 337.5 ± 2.3 J/K/mol
133.87 K | 341.8 ± 2.3 J/K/mol
135.88 K | 346.7 ± 2.4 J/K/mol
137.88 K | 351.3 ± 2.4 J/K/mol
139.88 K | 353.9 ± 2.4 J/K/mol
140 K | 356 ± 2.4 J/K/mol
141.88 K | 360.2 ± 2.5 J/K/mol
143.86 K | 365 ± 2.5 J/K/mol
145.81 K | 369.5 ± 2.5 J/K/mol
147.78 K | 373.9 ± 2.5 J/K/mol
149.76 K | 378.3 ± 2.6 J/K/mol
150 K | 378.8 ± 2.6 J/K/mol
152.23 K | 383.7 ± 2.6 J/K/mol
155.2 K | 391.3 ± 2.7 J/K/mol
158.16 K | 397.8 ± 2.7 J/K/mol
160 K | 401.7 ± 2.7 J/K/mol
161.11 K | 404.3 ± 2.7 J/K/mol
164.04 K | 411.2 ± 2.8 J/K/mol
166.97 K | 417.6 ± 2.8 J/K/mol
169.88 K | 424.5 ± 2.9 J/K/mol
170 K | 424.6 ± 2.9 J/K/mol
172.78 K | 430.6 ± 2.9 J/K/mol
175.68 K | 437 ± 3 J/K/mol
178.57 K | 443.5 ± 3 J/K/mol
180 K | 447.4 ± 3 J/K/mol
181.43 K | 450.4 ± 3.1 J/K/mol
184.29 K | 457.3 ± 3.1 J/K/mol
187.14 K | 463.9 ± 3.1 J/K/mol
189.9 K | 470 ± 3.2 J/K/mol
190 K | 470.3 ± 3.2 J/K/mol
192.72 K | 477.1 ± 3.2 J/K/mol
195.53 K | 483.7 ± 3.3 J/K/mol
198.33 K | 489.7 ± 3.3 J/K/mol
200 K | 493.6 ± 3.3 J/K/mol
201.12 K | 496.2 ± 3.4 J/K/mol
203.89 K | 503 ± 3.4 J/K/mol
209.43 K | 515.8 ± 3.5 J/K/mol
210 K | 517.7 ± 3.5 J/K/mol
212.2 K | 523 ± 3.5 J/K/mol
214.96 K | 529.5 ± 3.6 J/K/mol
217.72 K | 536.6 ± 3.6 J/K/mol
220 K | 542.3 ± 3.7 J/K/mol
220.47 K | 543.8 ± 3.7 J/K/mol
223.23 K | 550 ± 3.7 J/K/mol
225.98 K | 556.9 ± 3.8 J/K/mol
228.73 K | 564.4 ± 3.8 J/K/mol
230 K | 567.3 ± 3.8 J/K/mol
231.48 K | 571.2 ± 3.9 J/K/mol
234.15 K | 576.4 ± 3.9 J/K/mol
236.89 K | 583.6 ± 3.9 J/K/mol
239.63 K | 590.6 ± 4 J/K/mol
240 K | 591.6 ± 4 J/K/mol
242.35 K | 597.2 ± 4 J/K/mol
245.08 K | 603.8 ± 4.1 J/K/mol
247.81 K | 610.3 ± 4.1 J/K/mol
250 K | 615.4 ± 4.1 J/K/mol
250.54 K | 617 ± 4.2 J/K/mol
253.26 K | 623.5 ± 4.2 J/K/mol
255.99 K | 630.5 ± 4.2 J/K/mol
258.71 K | 636.5 ± 4.3 J/K/mol
260 K | 639.5 ± 4.3 J/K/mol
261.43 K | 643.1 ± 4.3 J/K/mol
264.15 K | 650.3 ± 4.4 J/K/mol
266.87 K | 656.1 ± 4.4 J/K/mol
269.6 K | 662.2 ± 4.5 J/K/mol
270 K | 664 ± 4.5 J/K/mol
272.32 K | 669 ± 4.5 J/K/mol
275.04 K | 675.8 ± 4.5 J/K/mol
277.75 K | 683.5 ± 4.6 J/K/mol
280 K | 689.1 ± 4.6 J/K/mol
280.46 K | 690.8 ± 4.6 J/K/mol
283.18 K | 697.8 ± 4.7 J/K/mol
285.9 K | 703.7 ± 4.7 J/K/mol
288.62 K | 711.2 ± 4.8 J/K/mol
290 K | 714.3 ± 4.8 J/K/mol
291.34 K | 717.9 ± 4.8 J/K/mol
294.06 K | 724.7 ± 4.9 J/K/mol
296.83 K | 732.2 ± 4.9 J/K/mol
298.15 K | 734.7 ± 4.9 J/K/mol
299.59 K | 739 ± 5 J/K/mol
300 K | 739.3 ± 5 J/K/mol
302.36 K | 745.1 ± 5 J/K/mol
305.06 K | 750.5 ± 5 J/K/mol
307.66 K | 756.7 ± 5.1 J/K/mol
310 K | 763.8 ± 5.1 J/K/mol
310.21 K | 763.5 ± 5.1 J/K/mol
312.71 K | 769.8 ± 5.2 J/K/mol
315.15 K | 776 ± 5.2 J/K/mol
317.53 K | 781.5 ± 5.2 J/K/mol
319.66 K | 787.9 ± 5.3 J/K/mol
320 K | 787.8 ± 5.3 J/K/mol
321.94 K | 792.5 ± 5.3 J/K/mol
324.16 K | 798.1 ± 5.4 J/K/mol
326.33 K | 802.6 ± 5.4 J/K/mol
328.44 K | 808.3 ± 5.4 J/K/mol
330 K | 811.6 ± 5.4 J/K/mol
330.51 K | 813 ± 5.5 J/K/mol
332.48 K | 818.5 ± 5.5 J/K/mol
334.44 K | 823.2 ± 5.5 J/K/mol
336.34 K | 827.3 ± 5.5 J/K/mol
338.2 K | 831.4 ± 5.6 J/K/mol
340 K | 835.5 ± 5.6 J/K/mol and 835.4 ± 5.6 J/K/mol
341.76 K | 839.5 ± 5.6 J/K/mol
343.47 K | 842.9 ± 5.7 J/K/mol
345 K | 846.6 ± 5.7 J/K/mol
346.75 K | 850.4 ± 5.7 J/K/mol
348.1 K | 853.8 ± 5.7 J/K/mol
349.45 K | 857 ± 5.7 J/K/mol
350 K | 859 ± 34 J/K/mol
350.59 K | 860.6 ± 5.8 J/K/mol
352.03 K | 864 ± 5.8 J/K/mol
353.43 K | 868 ± 5.8 J/K/mol
360 K | 882 ± 35 J/K/mol
370 K | 904 ± 36 J/K/mol
380 K | 926 ± 37 J/K/mol
390 K | 949 ± 38 J/K/mol
400 K | 972 ± 39 J/K/mol
410 K | 996 ± 40 J/K/mol
420 K | 1020 ± 41 J/K/mol
430 K | 1044 ± 42 J/K/mol
440 K | 1067 ± 43 J/K/mol
450 K | 1091 ± 44 J/K/mol
460 K | 1118 ± 45 J/K/mol
470 K | 1152 ± 46 J/K/mol
480 K | 1201 ± 48 J/K/mol
490 K | 1251 ± 50 J/K/mol
498 K | 1289 ± 52 J/K/mol
